Results from ChEMBL document CHEMBL1157358, “Comparative study of the effects of pyridoxine, rifampin, and renal function on hematological adverse events induced by linezolid” (Antimicrob Agents Chemother, 2007).
Converted amounts (≈) assume the structure as drawn. The source made the active and inactive calls. The rule behind the calls is not given here.

Key:
[1] = test system: Streptococcus; assay: Antibacterial activity against Streptococcus; format: functional
[2] = Drug level at steady state in human serum at 600 mg administered every 12 hrs; format: ADME, cell-free; settings: read-out: Drug uptake
[3] = test system: mitochondrial protein synthesis; assay: Toxicity in rat heart mitochondria assessed as inhibition of mitochondrial protein synthesis; settings: pooled result: one value given for 4 cell lines, strains, targets or settings
[4] = test system: Staphylococcus; assay: Antibacterial activity against coagulase-negative Staphylococcus; format: functional
[5] = test system: Enterococcus; assay: Antibacterial activity against Enterococcus; format: functional
[6] = test system: Staphylococcus aureus; assay: Antibacterial activity against Staphylococcus aureus; format: functional
[7] = AUC in human at 600 mg administered every 12 hrs measured after 24 hrs; format: ADME, organism-based; parameters: time < 24 hr, dose 600 mg; settings: plasma
[8] = test system: Homo sapiens; assay: Inhibition of linezolid-induced hematological events in orthopedic implant infection patient assessed as effect on anemia at 200 mg, po once daily; format: functional, organism-based
[9] = test system: Homo sapiens; assay: Inhibition of linezolid-induced hematological events in orthopedic implant infection patient assessed as effect on thrombocytopenia at 200 mg, po once daily; format: functional, organism-based
[10] = species on record: Homo sapiens; assay: Inhibition of linezolid-induced hematological events in bone infection patient assessed as rate of thrombocytopenia at 125 mg relative to control; format: functional; parameters: scale not given: the % may be the effect or the level left
[11] = species on record: Homo sapiens; assay: Inhibition of linezolid-induced hematological events in bone infection patient assessed as rate of anemia at 125 mg relative to control; format: functional; parameters: scale not given: the % may be the effect or the level left
[12] = species on record: Homo sapiens; assay: Inhibition of linezolid-induced hematological events in orthopedic implant infection patient assessed as thrombocytopenia incidence relative to control; format: functional; parameters: scale not given: the % may be the effect or the level left
[13] = species on record: Homo sapiens; assay: Inhibition of linezolid-induced hematological events in orthopedic implant infection patient assessed as reduction of anemia incidence relative to control; format: functional, organism-based

**Q.** For `CC(=O)NC[C@H]1CN(c2ccc(N3CCOCC3)c(F)c2)C(=O)O1` [LINEZOLID], which MIC [1] is on record?
**A.** 0.5 µg/mL (≈ 1.48 µM)

**Q.** And the concentration at 12 h [2]?
**A.** 6000 ng/mL

**Q.** What about the IC50 [3] of the same compound?
**A.** 3.37 µg/mL (≈ 9.99 µM)

**Q.** What about the MIC [4] of the same compound?
**A.** 0.5 µg/mL (≈ 1.48 µM)

**Q.** What about the MIC [5] of the same compound?
**A.** 0.5 µg/mL (≈ 1.48 µM)

**Q.** What about the MIC [6] of the same compound?
**A.** 0.5 µg/mL (≈ 1.48 µM)

**Q.** What about the AUC at 24 h [7] of the same compound?
**A.** 260 µg·h/mL

**Q.** Which Activity [8] does the source give for `Cc1ncc(CO)c(CO)c1O` [PYRIDOXINE] here?
**A.** inactive

**Q.** What about the Activity [9] of the same compound?
**A.** inactive

**Q.** What about the Activity [10] of the same compound?
**A.** 45.8%

**Q.** And the Activity [11]?
**A.** 25%

**Q.** Which Activity [12] does the source give for `CO[C@H]1/C=C/O[C@@]2(C)Oc3c(C)c(O)c4c(O)c(c(/C=N/N5CCN(C)CC5)c(O)c4c3C2=O)NC(=O)/C(C)=C\C=C\[C@H](C)[C@H](O)[C@@H](C)[C@@H](O)[C@@H](C)[C@H](OC(C)=O)[C@@H]1C` [RIFAMPIN] here?
**A.** 5.8%

**Q.** What about the Activity [13] of the same compound?
**A.** Active
